A word on the IC50: it is the concentration needed to halve the response being measured. One may read the pIC50 as −log10 of the IC50, conventionally taken in molar units.

The structures appear in SMILES notation.

In this assay the target is cloned human NR1/NR2B ion channels (Homo sapiens (Human), UniProt Q05586+Q13224). The assay is described as follows: HNR2BC: effects of test articles on cloned human NR1/NR2B ion channels expressed in mammalian cells (FLIPR calcium flux). In kind it is cell-based. The conditions noted are these: cloned human NR1/NR2B, Table 5. In short, it runs like this: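 Compounds were added to dye-loaded cells for 5 min with fluorescence monitored for agonism, followed by co-agonists (glutamate ~EC80, glycine 10 μM saturating) for 5 min. Cells stably expressed inducible human NR1/NR2B, and the buffer was pH 7.4. The FLIPR Ca2+ flux signal was normalized against control wells.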
Sequence of cloned human NR1/NR2B ion channels (Q13224 27-1484, other chains not shown): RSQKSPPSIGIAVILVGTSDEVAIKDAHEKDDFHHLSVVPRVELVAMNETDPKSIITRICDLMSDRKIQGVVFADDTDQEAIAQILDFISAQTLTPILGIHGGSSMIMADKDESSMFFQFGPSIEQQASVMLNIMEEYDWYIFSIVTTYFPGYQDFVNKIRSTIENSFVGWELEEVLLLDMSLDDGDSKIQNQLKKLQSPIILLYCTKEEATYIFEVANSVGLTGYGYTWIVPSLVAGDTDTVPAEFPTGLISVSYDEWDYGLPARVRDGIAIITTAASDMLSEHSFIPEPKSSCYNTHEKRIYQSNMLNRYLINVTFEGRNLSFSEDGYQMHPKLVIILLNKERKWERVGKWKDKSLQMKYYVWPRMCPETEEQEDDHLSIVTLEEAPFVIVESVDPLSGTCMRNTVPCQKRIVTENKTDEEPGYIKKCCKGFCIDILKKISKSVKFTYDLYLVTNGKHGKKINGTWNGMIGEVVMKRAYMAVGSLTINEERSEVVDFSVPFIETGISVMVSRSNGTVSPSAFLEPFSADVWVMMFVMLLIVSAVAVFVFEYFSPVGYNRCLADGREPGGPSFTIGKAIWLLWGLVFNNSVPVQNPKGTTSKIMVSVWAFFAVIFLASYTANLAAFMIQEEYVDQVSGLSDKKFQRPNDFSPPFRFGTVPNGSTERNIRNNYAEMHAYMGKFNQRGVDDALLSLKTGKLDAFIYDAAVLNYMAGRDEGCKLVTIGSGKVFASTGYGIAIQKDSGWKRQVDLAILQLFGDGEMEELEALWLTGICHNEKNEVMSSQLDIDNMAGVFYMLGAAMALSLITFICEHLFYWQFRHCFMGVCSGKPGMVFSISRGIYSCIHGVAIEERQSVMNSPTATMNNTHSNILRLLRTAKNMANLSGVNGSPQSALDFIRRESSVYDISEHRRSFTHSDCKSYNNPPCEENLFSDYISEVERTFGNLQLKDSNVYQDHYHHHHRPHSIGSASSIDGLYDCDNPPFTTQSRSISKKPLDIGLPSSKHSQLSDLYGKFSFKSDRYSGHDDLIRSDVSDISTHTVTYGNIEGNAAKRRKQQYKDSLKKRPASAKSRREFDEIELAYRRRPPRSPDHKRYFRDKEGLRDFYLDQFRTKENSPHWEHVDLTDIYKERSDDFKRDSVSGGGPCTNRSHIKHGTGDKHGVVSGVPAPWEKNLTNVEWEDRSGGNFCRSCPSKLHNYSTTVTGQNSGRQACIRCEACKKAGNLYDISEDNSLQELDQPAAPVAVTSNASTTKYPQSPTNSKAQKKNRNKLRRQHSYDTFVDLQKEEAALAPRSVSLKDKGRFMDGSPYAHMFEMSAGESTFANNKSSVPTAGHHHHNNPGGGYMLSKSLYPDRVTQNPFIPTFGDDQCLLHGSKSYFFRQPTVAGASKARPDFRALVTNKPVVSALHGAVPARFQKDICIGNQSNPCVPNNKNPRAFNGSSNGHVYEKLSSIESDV
For the molecule `O=C(Cn1ccc2ncc(-c3cc(F)cc(F)c3)cc21)N1CC(F)C1` [Example 129, 2-[6-(3,5-Difluorophenyl)pyrrolo[3,2-b]pyridin-1-yl]-1-(3-fluoroazetidin-1-yl)ethanone], the IC50 was 25.1 nM.
Take `Cc1csc(-c2cnc3ccn(Cc4cccnn4)c3c2)c1` [Example 130, 6-(4-Methyl-2-thienyl)-1-(pyridazin-3-ylmethyl)pyrrolo[3,2-b]pyridine]: the pIC50 turned out to be 7.7.
In the case of `Fc1ccc(-c2cnc3ccn(Cc4cccnn4)c3c2)cc1F` [Example 131, 6-(3,4-Difluorophenyl)-1-(pyridazin-3-ylmethyl)pyrrolo[3,2-b]pyridine], the IC50 is 126 nM.
Still for that read-out and setting: the value for `Cc1csc(-c2cnc3ccn(CC(=O)N4CCOCC4)c3c2)c1` [Example 132, 2-[6-(4-Methyl-2-thienyl)pyrrolo[3,2-b]pyridin-1-yl]-1-morpholino-ethanone] was 126 nM; that for `O=C(Cn1ccc2ncc(-c3ccc(F)cc3F)cc21)N1CCC1` [Example 133, 1-(Azetidin-1-yl)-2-[6-(2,4-difluorophenyl)pyrrolo[3,2-b]pyridin-1-yl]ethanone] was 79.4 nM.
Same read-out and setting: the figure for `O=C(Cn1ccc2ncc(-c3cccc(F)c3F)cc21)N1CCC1` [Example 134, 1-(Azetidin-1-yl)-2-[6-(2,3-difluorophenyl)pyrrolo[3,2-b]pyridin-1-yl]ethanone] is 31.6 nM; for `O=C(Cn1ccc2ncc(-c3cc(F)ccc3F)cc21)N1CCC1` [Example 135, 1-(Azetidin-1-yl)-2-[6-(2,5-difluorophenyl)pyrrolo[3,2-b]pyridin-1-yl]ethanone] it is 39.8 nM; for `O=C(Cn1cc(F)c2ncc(-c3ccc(F)c(F)c3)cc21)C1CC1` [Example 136, 1-Cyclopropyl-2-[6-(3,4-difluorophenyl)-3-fluoro-pyrrolo[3,2-b]pyridin-1-yl]ethanone] it is 63.1 nM.
For `Cc1csc(-c2cnc3ccn(Cc4ccc(C(F)(F)F)o4)c3c2)c1` [Example 137, 6-(4-Methyl-2-thienyl)-1-[[5-(trifluoromethyl)-2-furyl]methyl]pyrrolo[3,2-b]pyridine], the pIC50 amounted to 7.7.
As to `CC(C)(C)C(=O)Cn1ccc2ncc(-c3ccc(F)c(F)c3)cc21` [Example 140, 1-[6-(3,4-Difluorophenyl)pyrrolo[3,2-b]pyridin-1-yl]-3,3-dimethyl-butan-2-one], the IC50 is 31.6 nM.
For `Cc1cc(-c2cnc3ccn(CC(=O)C(C)(C)C)c3c2)ccc1F` [Example 141, 1-[6-(4-Fluoro-3-methyl-phenyl)pyrrolo[3,2-b]pyridin-1-yl]-3,3-dimethyl-butan-2-one], the half-maximal inhibitory concentration (IC50) is 398 nM.
On the same count and under the same terms, the value for `CC(C)(C)C(=O)Cn1ccc2ncc(-c3cc(F)cc(F)c3)cc21` [Example 142, 1-[6-(3,5-Difluorophenyl)pyrrolo[3,2-b]pyridin-1-yl]-3,3-dimethyl-butan-2-one] was 501 nM.
With `Cc1csc(-c2cnc3ccn(CC(=O)C(C)(C)C)c3c2)c1` [Example 143, 3,3-Dimethyl-1-[6-(4-methyl-2-thienyl)pyrrolo[3,2-b]pyridin-1-yl]butan-2-one], the half-maximal inhibitory concentration (IC50) was 794 nM.
Same read-out and setting: the figure for `CC(C)(C)C(=O)Cn1ccc2ncc(-c3cccc(C(F)F)c3)cc21` [Example 144, 1-[6-[3-(Difluoromethyl)phenyl]pyrrolo[3,2-b]pyridin-1-yl]-3,3-dimethyl-butan-2-one] is 2000 nM; for `CCc1cccc(-c2cnc3ccn(CC(=O)C(C)(C)C)c3c2)c1` [Example 145, 1-[6-(3-Ethylphenyl)pyrrolo[3,2-b]pyridin-1-yl]-3,3-dimethyl-butan-2-one] it is 501 nM.
The same measure, in the same setting: the figure for `Cc1cc(-c2cnc3c(Cl)cn(CC(=O)N(C)C)c3c2)ccc1F` [Example 146, 2-[3-Chloro-6-(4-fluoro-3-methyl-phenyl)pyrrolo[3,2-b]pyridin-1-yl]-N,N-dimethyl-acetamide] is 1000 nM.

(Values after patent US10377753B2, “Substituted 4-azaindoles and their use as GluN2B receptor modulators” (Janssen Pharmaceutica NV, priority 2015, dated 2019).)
